This is an account of results in patent US6365314B1, “Toner for developing electrostatic image, image forming method and process cartridge” (Canon Kabushiki Kaisha, priority 1994, dated 2002).

The structures appear in SMILES notation.

One series is described as follows: Solubility measurement of charge control agent in methanol. Particulars: stirred 1 hour at 50° C., cooled to room temperature, 0.1 μm-filter, absorbance vs 20 ppm standard. The series is classed as physicochemical. The protocol: The solubility of the charge control agent may be measured in the following manner.
<Solubility measurement of charge control agent>
2 g of a charge control agent is weighed and placed in a 300 ml Erlenmeyer flask to which 100 ml of methanol is added. The system is heated to 50° C. under stirring and the stirring is further continued for 1 hour (when all the charge control agent is dissolved, the charge control agent is further added successively at an increment of 2 g each under continued stirring). Then, the system is cooled to room temperature and the insoluble charge control agent is removed by a 0.1 μm-filter to measure the absorbance (A) of the solution at a maximum absorption wavelength by using a spectrophotometer.
wherein I denotes a transmitted light intensity through a solution, I0 denotes a transmitted light intensity through a solvent (=methanol), ε0 denotes an absorption coefficient, C denotes the concentration of the charge control agent, and d denotes the thickness of the solution for the absorbance measurement.
As for `O=C(Nc1ccccc1)c1cc2ccccc2c2c1[O][Fe]1([O]c3ccc(Cl)cc3N=N2)[O]c2ccc(Cl)cc2N=Nc2c(c(C(=O)Nc3ccccc3)cc3ccccc23)[O]1` (stereo not shown) [Complex (1)], the “SMeOH (solubility in methanol)” value is on record as “SMeOH = 0.87 g/100 ml)”.

As to `O=C(Nc1ccccc1)c1cc2ccccc2c2c1[O][Fe]1([O]c3c(Cl)cc(Cl)cc3N=N2)[O]c2c(Cl)cc(Cl)cc2N=Nc2c(c(C(=O)Nc3ccccc3)cc3ccccc23)[O]1` (stereo not shown) [Complex (2)], the “SMeOH (solubility in methanol)” value is “SMeOH = 0.75 g/100 ml)”. Still for that read-out and setting: as for `O=C(Nc1cccc([N+](=O)[O-])c1)c1cc2ccccc2c2c1[O][Fe]1([O]c3ccc(Cl)cc3/N=N/2)[O]c2ccc(Cl)cc2/N=N/c2c(c(C(=O)Nc3cccc([N+](=O)[O-])c3)cc3ccccc23)[O]1` [Complex (3)], the entry is “SMeOH = 0.71 g/100 ml)”; as for `O=C(Nc1cccc([N+](=O)[O-])c1)c1cc2ccccc2c2c1[O][Fe]1([O]c3c(cc(Cl)cc3[N+](=O)[O-])/N=N/2)[O]c2c(cc(Cl)cc2[N+](=O)[O-])/N=N/c2c(c(C(=O)Nc3cccc([N+](=O)[O-])c3)cc3ccccc23)[O]1` [Complex (4)], “SMeOH = 0.65 g/100 ml)”. For the molecule `Cc1ccccc1NC(=O)c1cc2ccccc2c2c1[O][Fe]1([O]c3cc(Cl)c([N+](=O)[O-])cc3/N=N/2)[O]c2cc(Cl)c([N+](=O)[O-])cc2/N=N/c2c(c(C(=O)Nc3ccccc3C)cc3ccccc23)[O]1` [Complex (5)], the “SMeOH (solubility in methanol)” value is “SMeOH = 0.65 g/100 ml)”. Regarding `Cc1ccccc1NC(=O)c1cc2ccccc2c2c1[O][Fe]1([O]c3ccccc3N=N2)[O]c2ccccc2N=Nc2c(c(C(=O)Nc3ccccc3C)cc3ccccc23)[O]1` (stereo not shown) [Complex (6)], the “SMeOH (solubility in methanol)” value is listed as “SMeOH = 0.76 g/100 ml)”.

Staying with this series, now noted: stirred 1 hour at 50° C., cooled to room temperature, 0.1 μm-filter, absorbance vs 20 ppm standard, listed as Azo-type iron complex (1).
With `O=C(Nc1ccccc1)c1cc2ccccc2c2c1[O][Fe]1([O]c3ccc(Cl)cc3N=N2)[O]c2ccc(Cl)cc2N=Nc2c(c(C(=O)Nc3ccccc3)cc3ccccc23)[O]1` (stereo not shown) [Complex (1)], the “SMeOH (solubility in methanol)” value worked out at 0.87 g/100 ml).
